Measurements from ChEMBL document CHEMBL1201862, “PubChem BioAssay data set” (2004).
The source made the active and inactive calls.

Legend:
[1] = Vero E6 cell cytotoxicity, dose response, cytotoxicity control for non-replicating M. tuberculosis project, secondary assay (AID 492998); type: functional, VeroE6; conditions: Vero C1008
Beta-galactosidase [2] = molecular target: T1, Beta-galactosidase (Escherichia coli, UniProt Q8VNN2); assay: PubChem AID 485352; type: functional
INS1 = assay: INS-1E survival protection against cytokine death – cell-based, luminescence, retest, dose response (AID 449756); type: functional; conditions: Rattus norvegicus;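 note: cell death triggered by IL-1 beta plus TNF-alpha plus IFN-gamma mixture; protective hits raise ATP signal compared with cytokine alone wells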
[3] = molecular target: T2, Kappa-type opioid receptor (Homo sapiens, UniProt P41145); type: functional
[4] = HepG2 cell cytotoxicity, dose response, cytotoxicity control for non-replicating M. tuberculosis project (AID 489018); type: functional; conditions: Mycobacterium tuberculosis
[5] = microbe, parasite or virus in culture; type: functional; conditions: Mycobacterium tuberculosis
[6] = molecular target: T3, Delta-type opioid receptor (Homo sapiens, UniProt P41143); assay: HTS Image-Based Screen for Agonists of the DOR Receptor. [Related pubchem assays (depositor defined):AID1777, AID1786, AID2133]; type: functional
Mu-type opioid receptor = Mu-type opioid receptor (Homo sapiens, UniProt P35372); assay: HTS Image-Based Screen for Agonists of the MOR Receptor. [Related pubchem assays (depositor defined):AID1777, AID1785, AID1786, AID2133]; type: functional;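 note: imaging of beta-arrestin GFP recruitment into spots after receptor activation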
[7] = THP-1 cell cytotoxicity, dose response, cytotoxicity control for non-replicating M. tuberculosis project (AID 489025); type: functional
cells = type: functional
Beta-galactosidase [8] = molecular target: T1, Beta-galactosidase; type: functional
[9] = molecular target: T4, Type-1 angiotensin II receptor (Homo sapiens, UniProt P30556); assay: antagonism of angiotensin II type 1 receptor – cell-based, uHTS hits, selectivity assay for APJ receptor antagonist project, dose response (AID 463214); type: functional;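 note: antagonist potency against angiotensin II stimulated AT1 response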
T4 sequence (P30556 whole entry): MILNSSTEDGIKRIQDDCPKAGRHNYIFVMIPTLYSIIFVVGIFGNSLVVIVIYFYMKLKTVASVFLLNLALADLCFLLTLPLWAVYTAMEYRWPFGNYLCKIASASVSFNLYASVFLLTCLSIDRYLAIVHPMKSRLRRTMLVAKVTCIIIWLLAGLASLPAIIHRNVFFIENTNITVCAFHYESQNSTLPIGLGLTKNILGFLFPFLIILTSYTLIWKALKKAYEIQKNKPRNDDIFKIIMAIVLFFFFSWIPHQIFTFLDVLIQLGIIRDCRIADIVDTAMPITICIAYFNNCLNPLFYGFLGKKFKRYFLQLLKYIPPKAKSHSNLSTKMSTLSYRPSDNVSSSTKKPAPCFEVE

[10] = molecular target: T2, Kappa-type opioid receptor; type: functional; remark: listed apart in the source
[11] = molecular target: T3, Delta-type opioid receptor; assay: HTS Image-Based Screen for Antagonists of the DOR Receptor. [Related pubchem assays (depositor defined):AID1777, AID1785, AID1786, AID2133]; type: functional
Hexokinase-1 = molecular target: T5, Hexokinase-1 (Homo sapiens, UniProt P19367); assay: HK1 enzyme activation by HKDC1 hits – biochemical, selectivity assay for HKDC1 activator project, dose response (AID 504762); type: functional
T5 sequence (P19367 whole entry): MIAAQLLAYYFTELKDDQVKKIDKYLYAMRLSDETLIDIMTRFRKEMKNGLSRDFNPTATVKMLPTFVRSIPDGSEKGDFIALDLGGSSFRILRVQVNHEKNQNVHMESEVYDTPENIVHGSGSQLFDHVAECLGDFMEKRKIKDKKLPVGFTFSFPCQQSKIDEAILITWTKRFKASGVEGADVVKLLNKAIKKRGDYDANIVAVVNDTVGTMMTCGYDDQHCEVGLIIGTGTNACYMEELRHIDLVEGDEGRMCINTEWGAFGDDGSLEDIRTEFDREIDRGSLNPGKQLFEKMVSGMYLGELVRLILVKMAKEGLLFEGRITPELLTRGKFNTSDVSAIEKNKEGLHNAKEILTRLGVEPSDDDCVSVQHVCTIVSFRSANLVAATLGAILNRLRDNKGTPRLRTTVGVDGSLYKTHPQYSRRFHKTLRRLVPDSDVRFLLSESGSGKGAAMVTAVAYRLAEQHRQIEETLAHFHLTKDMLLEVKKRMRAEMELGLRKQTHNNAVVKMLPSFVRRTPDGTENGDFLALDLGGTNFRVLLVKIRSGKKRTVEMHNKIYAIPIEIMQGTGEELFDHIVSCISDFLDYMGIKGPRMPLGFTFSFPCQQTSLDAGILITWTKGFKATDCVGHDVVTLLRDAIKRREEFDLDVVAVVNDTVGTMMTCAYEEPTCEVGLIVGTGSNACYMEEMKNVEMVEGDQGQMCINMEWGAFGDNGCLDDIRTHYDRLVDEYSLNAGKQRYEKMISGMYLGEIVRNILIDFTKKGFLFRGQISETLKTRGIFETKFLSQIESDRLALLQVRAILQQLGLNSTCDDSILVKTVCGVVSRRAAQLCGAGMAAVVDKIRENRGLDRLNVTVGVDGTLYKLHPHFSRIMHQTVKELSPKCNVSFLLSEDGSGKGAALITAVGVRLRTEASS

[12] = molecular target: T6, Heat shock factor protein 1 (Mus musculus, UniProt P38532); assay: decrease of HSF1-responsive luciferase luminescence – cell-based, NIH3T3, dose retest, confirmation (AID 2382); type: functional;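 note: NIH3T3 fibroblasts with HSF1-driven luciferase reporter stressed by proteasome inhibitor MG132; luminescence from HSF1-driven luciferase expression after 8 hours of MG132 stress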
T6 sequence (P38532 whole entry): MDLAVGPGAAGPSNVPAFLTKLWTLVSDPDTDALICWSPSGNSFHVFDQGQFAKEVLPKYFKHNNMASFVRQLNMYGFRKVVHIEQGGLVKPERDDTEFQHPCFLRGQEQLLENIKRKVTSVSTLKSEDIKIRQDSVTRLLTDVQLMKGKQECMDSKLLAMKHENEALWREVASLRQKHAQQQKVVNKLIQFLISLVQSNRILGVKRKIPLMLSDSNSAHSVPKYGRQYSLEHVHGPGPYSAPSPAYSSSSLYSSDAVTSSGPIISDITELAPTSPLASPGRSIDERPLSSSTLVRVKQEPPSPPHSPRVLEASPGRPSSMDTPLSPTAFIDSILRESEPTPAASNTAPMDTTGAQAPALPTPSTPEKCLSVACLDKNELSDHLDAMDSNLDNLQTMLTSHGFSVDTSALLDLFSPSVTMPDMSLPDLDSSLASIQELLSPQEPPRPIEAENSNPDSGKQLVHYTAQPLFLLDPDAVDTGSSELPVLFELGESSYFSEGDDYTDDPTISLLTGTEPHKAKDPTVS

Hexokinase HKDC1 = molecular target: T7, Hexokinase HKDC1 (Homo sapiens, UniProt Q2TB90); assay: activation of HKDC1 glucose phosphorylation – biochemical, W721R variant, dose response (AID 504730); type: functional
T7 sequence (Q2TB90 whole entry): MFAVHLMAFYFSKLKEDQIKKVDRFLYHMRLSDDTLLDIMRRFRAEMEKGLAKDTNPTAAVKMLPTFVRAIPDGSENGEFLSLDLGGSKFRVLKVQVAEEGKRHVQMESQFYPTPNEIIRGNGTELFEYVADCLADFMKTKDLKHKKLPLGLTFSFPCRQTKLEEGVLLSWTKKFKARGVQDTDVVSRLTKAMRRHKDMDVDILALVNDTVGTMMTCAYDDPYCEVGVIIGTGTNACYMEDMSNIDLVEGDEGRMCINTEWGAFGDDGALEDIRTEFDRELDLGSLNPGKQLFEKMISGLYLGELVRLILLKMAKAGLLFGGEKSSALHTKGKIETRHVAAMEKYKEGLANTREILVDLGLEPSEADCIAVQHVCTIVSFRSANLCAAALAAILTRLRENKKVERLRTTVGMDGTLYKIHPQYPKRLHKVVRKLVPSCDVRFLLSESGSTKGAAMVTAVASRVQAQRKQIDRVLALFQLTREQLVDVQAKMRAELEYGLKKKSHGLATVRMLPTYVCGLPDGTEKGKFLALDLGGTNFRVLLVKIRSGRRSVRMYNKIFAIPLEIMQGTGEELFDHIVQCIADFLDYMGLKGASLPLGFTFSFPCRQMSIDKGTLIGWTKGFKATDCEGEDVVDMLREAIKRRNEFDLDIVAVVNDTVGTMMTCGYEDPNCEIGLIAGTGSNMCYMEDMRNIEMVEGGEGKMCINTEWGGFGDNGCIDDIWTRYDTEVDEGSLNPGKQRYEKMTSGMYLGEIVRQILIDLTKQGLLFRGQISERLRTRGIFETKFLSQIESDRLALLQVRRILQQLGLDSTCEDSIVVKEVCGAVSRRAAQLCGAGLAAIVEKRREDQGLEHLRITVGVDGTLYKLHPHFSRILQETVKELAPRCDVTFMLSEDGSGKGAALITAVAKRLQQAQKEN

[13] = molecular target: T8, Tyrosine-protein phosphatase non-receptor type 22 (Homo sapiens, UniProt Q9Y2R2); type: functional
T8 sequence (Q9Y2R2 whole entry): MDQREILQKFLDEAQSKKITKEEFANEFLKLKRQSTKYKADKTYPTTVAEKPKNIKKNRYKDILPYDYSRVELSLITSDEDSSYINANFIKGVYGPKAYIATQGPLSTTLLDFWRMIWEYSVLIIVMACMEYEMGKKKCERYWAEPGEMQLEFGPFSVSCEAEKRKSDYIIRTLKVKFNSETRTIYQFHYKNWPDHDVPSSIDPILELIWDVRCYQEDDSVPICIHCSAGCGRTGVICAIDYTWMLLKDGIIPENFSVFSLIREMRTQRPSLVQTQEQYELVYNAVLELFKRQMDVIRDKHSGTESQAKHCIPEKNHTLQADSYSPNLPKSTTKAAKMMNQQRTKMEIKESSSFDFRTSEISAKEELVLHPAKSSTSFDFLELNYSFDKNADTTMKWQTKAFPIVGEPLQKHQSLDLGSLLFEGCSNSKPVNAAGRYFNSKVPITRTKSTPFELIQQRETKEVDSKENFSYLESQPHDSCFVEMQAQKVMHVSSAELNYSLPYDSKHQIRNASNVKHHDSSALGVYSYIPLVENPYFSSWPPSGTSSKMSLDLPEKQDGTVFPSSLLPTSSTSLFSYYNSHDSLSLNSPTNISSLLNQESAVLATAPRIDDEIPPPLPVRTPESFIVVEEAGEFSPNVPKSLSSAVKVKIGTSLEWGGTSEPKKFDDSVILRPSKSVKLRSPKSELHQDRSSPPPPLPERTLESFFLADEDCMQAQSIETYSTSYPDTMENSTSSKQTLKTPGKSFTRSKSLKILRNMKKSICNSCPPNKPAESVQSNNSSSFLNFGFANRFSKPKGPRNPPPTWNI

[14] = molecular target: T9, Tyrosine-protein phosphatase non-receptor type 7 (Homo sapiens, UniProt P35236); type: functional
T9 sequence (P35236 whole entry): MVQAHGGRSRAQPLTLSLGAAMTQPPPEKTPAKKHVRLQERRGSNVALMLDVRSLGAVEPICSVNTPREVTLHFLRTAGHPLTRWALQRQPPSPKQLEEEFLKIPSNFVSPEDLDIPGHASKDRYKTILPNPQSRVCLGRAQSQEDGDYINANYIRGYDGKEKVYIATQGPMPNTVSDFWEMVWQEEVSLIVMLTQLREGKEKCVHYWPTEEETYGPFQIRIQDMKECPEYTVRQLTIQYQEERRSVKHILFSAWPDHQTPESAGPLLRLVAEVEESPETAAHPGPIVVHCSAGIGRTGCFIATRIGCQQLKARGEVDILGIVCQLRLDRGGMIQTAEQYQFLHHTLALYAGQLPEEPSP

[15] = molecular target: T8, Tyrosine-protein phosphatase non-receptor type 22; type: functional; remark: listed apart in the source
[16] = A Cell Based Secondary Assay To Explore Cytotoxicity of Compounds that Sensitize Mycobacterium Tuberculosis to Beta-Lactam Antibiotics.; type: functional
[17] = alpha-synuclein stem-loop luciferase translation blockers – H4 neuroglioma cells, luminescence, confirmation (AID 1988); type: functional, cell-based
[18] = Luminescence Cell-Based Dose Response HTS to Identify Inhibitors of 5'UTR Stem-Loop Driven Prion Protein mRNA Translation in H4 Neuroglioblastoma Cells. [Related pubchem assays: 1827 (Project Summary), 1813 (Primary HTS)]; type: functional
Streptococcus = assay: GAS UMAA2166 growth inhibition – luminescence, BacTiterGlo, counter-screen for streptokinase expression inhibitor project, dose response (AID 1915); type: functional, organism-based;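 note: potency for reduction of bacterial viability or growth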
[19] = tested on: Streptococcus sp. 'group A'; assay: Streptococcus pyogenes SK(-)GAS viability under kanamycin – luminescence, BacTiterGlo, confirmation, counter-screen for streptokinase expression inhibitor project, dose response (AID 1900); type: functional, organism-based
[20] = luciferase reporter signal suppression in cells – H4 neuroglioma cells, luminescence, dose response (AID 1990); type: functional, cell-based

T1 sequence (Q8VNN2 whole entry): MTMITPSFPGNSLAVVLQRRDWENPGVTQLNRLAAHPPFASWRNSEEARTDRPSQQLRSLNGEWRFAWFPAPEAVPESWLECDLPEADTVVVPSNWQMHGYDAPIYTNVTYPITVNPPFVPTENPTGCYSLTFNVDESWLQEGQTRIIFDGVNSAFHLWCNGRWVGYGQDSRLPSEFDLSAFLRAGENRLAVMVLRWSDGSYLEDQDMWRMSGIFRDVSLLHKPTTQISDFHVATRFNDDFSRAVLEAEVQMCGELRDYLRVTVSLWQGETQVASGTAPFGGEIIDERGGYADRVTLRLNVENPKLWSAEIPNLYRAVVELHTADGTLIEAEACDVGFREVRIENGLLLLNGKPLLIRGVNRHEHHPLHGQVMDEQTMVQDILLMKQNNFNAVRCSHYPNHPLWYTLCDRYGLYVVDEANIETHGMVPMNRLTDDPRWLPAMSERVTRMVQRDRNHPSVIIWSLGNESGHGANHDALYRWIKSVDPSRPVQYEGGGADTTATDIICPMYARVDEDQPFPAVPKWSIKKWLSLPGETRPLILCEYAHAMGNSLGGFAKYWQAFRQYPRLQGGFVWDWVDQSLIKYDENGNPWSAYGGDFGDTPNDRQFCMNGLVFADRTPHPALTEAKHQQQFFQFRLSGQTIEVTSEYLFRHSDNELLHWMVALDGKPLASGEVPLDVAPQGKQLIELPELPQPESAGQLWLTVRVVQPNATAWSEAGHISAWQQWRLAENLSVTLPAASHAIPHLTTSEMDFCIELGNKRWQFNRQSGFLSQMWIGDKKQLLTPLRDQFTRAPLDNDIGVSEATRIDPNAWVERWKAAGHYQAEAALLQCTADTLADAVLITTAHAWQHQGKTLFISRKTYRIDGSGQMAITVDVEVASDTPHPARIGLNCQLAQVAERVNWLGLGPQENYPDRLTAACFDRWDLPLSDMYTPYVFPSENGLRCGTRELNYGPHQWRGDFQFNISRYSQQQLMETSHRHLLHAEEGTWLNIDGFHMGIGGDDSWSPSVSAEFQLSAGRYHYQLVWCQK
T2 sequence (P41145 whole entry): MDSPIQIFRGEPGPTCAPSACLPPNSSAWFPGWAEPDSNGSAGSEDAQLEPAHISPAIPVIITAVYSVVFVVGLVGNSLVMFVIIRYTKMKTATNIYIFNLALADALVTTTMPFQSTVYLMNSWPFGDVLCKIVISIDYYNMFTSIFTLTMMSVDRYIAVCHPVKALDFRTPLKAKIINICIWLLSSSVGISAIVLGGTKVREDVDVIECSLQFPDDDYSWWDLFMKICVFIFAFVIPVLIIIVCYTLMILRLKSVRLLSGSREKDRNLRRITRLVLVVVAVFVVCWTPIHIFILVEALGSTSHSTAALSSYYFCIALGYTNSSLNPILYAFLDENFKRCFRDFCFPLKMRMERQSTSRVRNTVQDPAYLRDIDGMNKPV
T3 sequence (P41143 whole entry): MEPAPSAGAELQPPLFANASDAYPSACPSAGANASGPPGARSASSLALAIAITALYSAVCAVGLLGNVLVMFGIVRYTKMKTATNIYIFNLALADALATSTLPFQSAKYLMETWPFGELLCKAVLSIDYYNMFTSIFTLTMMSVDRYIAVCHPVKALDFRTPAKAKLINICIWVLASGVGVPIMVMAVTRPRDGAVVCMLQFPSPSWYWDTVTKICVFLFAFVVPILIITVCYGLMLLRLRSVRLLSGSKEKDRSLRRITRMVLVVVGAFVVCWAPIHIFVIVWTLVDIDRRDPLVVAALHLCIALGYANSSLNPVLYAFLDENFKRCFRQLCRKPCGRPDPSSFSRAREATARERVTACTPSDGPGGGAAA
Chain of Mu-type opioid receptor (P35372 whole entry): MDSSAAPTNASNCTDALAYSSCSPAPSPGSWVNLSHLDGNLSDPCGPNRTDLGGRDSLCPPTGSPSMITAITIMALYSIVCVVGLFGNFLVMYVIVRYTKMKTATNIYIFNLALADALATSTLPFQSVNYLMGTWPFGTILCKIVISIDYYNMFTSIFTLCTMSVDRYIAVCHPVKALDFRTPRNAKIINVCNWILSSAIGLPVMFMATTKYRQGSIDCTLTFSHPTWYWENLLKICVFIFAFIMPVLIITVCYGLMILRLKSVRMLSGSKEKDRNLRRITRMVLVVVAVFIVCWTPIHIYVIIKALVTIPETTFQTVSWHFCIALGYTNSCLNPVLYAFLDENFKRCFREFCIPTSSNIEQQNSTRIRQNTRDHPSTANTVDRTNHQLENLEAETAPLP

O=C(NNC(=O)C12CC3CC(CC(C3)C1)C2)c1ccccn1
CC50 [1]: 8.61 µM (active) | EC50 (Beta-galactosidase [2]): > 40 µM (inactive) | AC50 (INS1): 3.14 µM (active) | IC50 [3]: 15 µM (active) | CC50 [4]: > 20 µM (active) | CC50 [5]: 16.7 µM (active) | EC50 [6]: > 32 µM (inactive) | EC50 (Mu-type opioid receptor): > 32 µM (inactive) | CC50 [7]: 5.31 µM (active) | IC50 (cells): 9.85 µM (active) | EC50 (Beta-galactosidase [8]): > 31.5 µM (inactive) | IC50 [9]: 11.2 µM (active) | IC50 [10]: > 32 µM | IC50 [11]: > 32 µM (inactive)

CCc1ccc(C2=NN=C(Nc3cccc(S(=O)(=O)N(C)C)c3)SC2)cc1
AC50 (INS1): 7.54 µM (active) | EC50 (Hexokinase-1): 8.26 µM (active) | EC50 [12]: > 195 µM (not active) | EC50 (Hexokinase HKDC1): 10.3 µM (active)

Cc1ccc(C(=O)O)cc1NC(=O)c1ccc2c(c1)C(=O)N(c1ccc([N+](=O)[O-])cc1)C2=O
IC50 [13]: 21.6 µM (active) | IC50 [14]: 10.9 µM (active) | IC50 [15]: 15 µM (active)

CCCCN(CCCC)C(=S)N/N=C/c1c(C)nn(-c2ccccc2)c1O
CC50 [16]: 5.22 µM (active) | EC50 (Beta-galactosidase [2]): > 40 µM (inactive) | EC50 [17]: > 120 µM (not active) | EC50 [18]: 4.19 µM (active) | EC50 (Hexokinase-1): > 80 µM (inactive) | EC50 (Streptococcus): 11.4 µM (active) | EC50 [19]: 0.221 µM (active) | IC50 [9]: 13.3 µM (active) | EC50 [20]: 13.3 µM (active) | EC50 (Hexokinase HKDC1): 28.7 µM (inactive)
